Each structure is given as a SMILES string.

Format in all cases: biochemical
The target in test [1] is T1, c-Met kinase (Homo sapiens, UniProt P08581).
T1 construct: recombinant N-terminal 6×His-tagged c-Met kinase domain construct expressed from baculovirus; 6xHis (N); made in house
The experiment in a line: c-Met kinase assay (33P incorporation into Poly(Glu-Tyr)). The conditions noted are these: 500 nM test compound. In short, it runs like this:
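Recombinant N-terminal 6×His-tagged c-Met kinase domain (baculovirus-expressed, 5 ng) acted on Poly(Glu-Tyr) 4:1 with 100 μM ATP plus [33P]-γ-ATP in MOPS pH 7.0 buffer, 30 min at 30° C. Compound was at 500 nM. Filter-retained radioactivity was compared with the DMSO control to give percent inhibition.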

Test [2] has as its target T2, PDGFR-β kinase (Homo sapiens, UniProt P09619).
T2 construct: recombinant N-terminal 6×His-tagged PDGFR-β kinase domain construct expressed by baculovirus; 6xHis (N); made in house
Put plainly: PDGFR-β kinase assay (33P incorporation into Poly(Glu-Tyr)). The conditions noted are these: 500 nM test compound. The essentials:
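His-tagged PDGFR-β kinase domain (55 ng) with Poly(Glu-Tyr) 4:1, 30 μM ATP plus [33P]-γ-ATP, pH 7.0 MnCl2 buffer, and 500 nM compound for 30 min at 30° C. Filter-bound radioactivity counted; inhibition computed relative to DMSO control.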

Test [3] concerns the target T3, Flt3 kinase (Homo sapiens, UniProt P36888).
T3 construct: recombinant N-terminal 6×His-tagged Flt3 kinase domain construct expressed from baculovirus; 6xHis (N); made in house
T3 sequence (P36888 610-943 limits assumed): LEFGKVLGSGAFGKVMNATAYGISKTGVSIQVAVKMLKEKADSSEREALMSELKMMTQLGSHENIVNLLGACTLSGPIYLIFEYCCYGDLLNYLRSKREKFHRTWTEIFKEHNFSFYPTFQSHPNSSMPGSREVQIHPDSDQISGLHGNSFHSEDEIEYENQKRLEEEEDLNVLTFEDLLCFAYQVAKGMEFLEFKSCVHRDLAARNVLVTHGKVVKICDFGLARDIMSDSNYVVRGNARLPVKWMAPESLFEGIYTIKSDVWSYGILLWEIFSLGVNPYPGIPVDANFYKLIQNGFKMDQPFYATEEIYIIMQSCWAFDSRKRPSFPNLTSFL
Put plainly: Flt3 kinase assay (33P incorporation into Poly(Glu-Tyr)). The settings on record: 100 nM test compound; read-out: Inhibition at 100 nM (%) Flt-3. The essentials:
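Baculovirus-expressed His-tagged Flt3 kinase domain (5 ng) with Poly(Glu-Tyr) 4:1 substrate, 100 μM ATP plus [33P]-γ-ATP, in MOPS pH 7.0 buffer, 30 min at 30 °C. Compound tested at a single 100 nM concentration; filter-bound radioactivity counted and percent inhibition calculated relative to DMSO control.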

For test [4], the target named is T4, Aurora B kinase (Homo sapiens, UniProt Q96GD4).
T4 construct: purchased Cell signaling
The experiment in a line: Aurora B kinase assay ([γ-33P]ATP, CHOCKtide substrate). The settings on record: for inhibition at 1 µM: 1.0 μM test compound. In short, it runs like this:
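Recombinant Aurora A (1 ng) or Aurora B (2.5 ng) incubated with test compound, CHOCKtide (1 μg) and [γ-33P]ATP/ATP at 10 μM (Aurora A) or 40 μM (Aurora B), 30 min at 33 °C. Stopped with phosphoric acid; filter-bound 33P counted; IC50 = half-maximal inhibition.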

T4 sequence (Q96GD4 whole entry): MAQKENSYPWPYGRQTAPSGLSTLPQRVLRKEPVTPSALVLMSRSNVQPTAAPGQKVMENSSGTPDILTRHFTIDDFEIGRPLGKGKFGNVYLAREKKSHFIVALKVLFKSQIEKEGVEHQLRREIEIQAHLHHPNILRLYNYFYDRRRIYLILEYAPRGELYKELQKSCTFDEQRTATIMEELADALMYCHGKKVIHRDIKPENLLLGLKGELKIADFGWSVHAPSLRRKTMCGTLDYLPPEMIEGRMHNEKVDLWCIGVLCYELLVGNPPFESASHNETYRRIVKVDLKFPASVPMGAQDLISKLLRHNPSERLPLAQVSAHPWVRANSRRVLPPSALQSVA
T2 sequence (P09619 600-962 limits assumed): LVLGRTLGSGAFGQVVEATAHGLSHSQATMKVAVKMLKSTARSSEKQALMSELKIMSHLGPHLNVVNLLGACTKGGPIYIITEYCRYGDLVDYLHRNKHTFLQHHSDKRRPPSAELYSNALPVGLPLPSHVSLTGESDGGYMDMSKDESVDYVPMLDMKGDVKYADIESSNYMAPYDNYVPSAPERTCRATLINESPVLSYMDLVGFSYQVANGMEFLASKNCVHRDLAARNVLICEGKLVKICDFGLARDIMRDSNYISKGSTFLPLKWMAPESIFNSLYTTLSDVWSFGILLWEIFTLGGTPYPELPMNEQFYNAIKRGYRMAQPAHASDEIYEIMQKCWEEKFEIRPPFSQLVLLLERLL
T1 sequence (P08581 1078-1345 limits assumed): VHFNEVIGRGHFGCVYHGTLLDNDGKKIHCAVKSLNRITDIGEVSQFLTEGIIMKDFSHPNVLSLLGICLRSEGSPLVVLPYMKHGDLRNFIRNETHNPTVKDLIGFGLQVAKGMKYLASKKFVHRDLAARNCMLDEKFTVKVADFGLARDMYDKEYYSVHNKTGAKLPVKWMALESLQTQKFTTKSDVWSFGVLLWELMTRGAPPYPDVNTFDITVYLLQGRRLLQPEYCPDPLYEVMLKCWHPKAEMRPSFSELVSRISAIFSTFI

For the compound `CCOC(=O)CCc1c(/C=C2\C(=O)Nc3ccc(NS(=O)(=O)c4ccc(F)cc4)cc32)[nH]c2c1C(=O)CCC2` [DCB-70144, (Z)-ethyl 3-(2-((5-(4-fluorophenylsulfonamido)-2-oxoindolin-3-ylidene)methyl)-4-oxo-4,5,6,7-tetrahydro-1H-indol-3-yl)propanoate], the inhibition at 0.5 µM in test [1] came out at 14.4%. Also, in test [2], 0.5 µM produced 2.4% inhibition. Moreover, the inhibition at 0.1 µM in test [3] came out at 38.7%. Moreover, in test [4], the IC50 was 448 nM and testing at 1 µM gave an inhibition of 61.9%.

Turning to `O=C(O)CCc1c(/C=C2\C(=O)Nc3ccc(NS(=O)(=O)c4ccc(F)cc4)cc32)[nH]c2c1C(=O)CCC2` [DCB-70145, (Z)-3-(2-((5-(4-fluorophenylsulfonamido)-2-oxoindolin-3-ylidene)methyl)-4-oxo-4,5,6,7-tetrahydro-1H-indol-3-yl)propanoic acid], the inhibition at 0.5 µM in test [1] is 12.5%; in test [2] it was 14.5%. Also, the inhibition at 0.1 µM in test [3] was 24%. Moreover, the IC50 in test [4] was determined as 449 nM. Moreover, in test [4], the inhibition at 1 µM stood at 75.2%.

With `CCOC(=O)CCc1c(/C=C2\C(=O)Nc3ccc(NS(=O)(=O)c4ccccc4)cc32)[nH]c2c1C(=O)CCCC2` [DCB-70146, (Z)-ethyl 3-(4-oxo-2-((2-oxo-5-(phenylsulfonamido)indolin-3-ylidene)methyl)-1,4,5,6,7,8-hexahydrocyclohepta[b]pyrrol-3-yl)propanoate], the inhibition at 0.5 µM came out at 20.9% in test [1] and 19.7% in test [2]. The inhibition at 0.1 µM in test [3] is 59.9%. In test [4], this compound returned an IC50 of 439 nM. The inhibition at 1 µM in test [4] is 75.1%.

Take `O=C(O)CCc1c(/C=C2\C(=O)Nc3ccc(NS(=O)(=O)c4ccccc4)cc32)[nH]c2c1C(=O)CCCC2` [DCB-70147, (Z)-3-(4-oxo-2-((2-oxo-5-(phenylsulfonamido)indolin-3-ylidene)methyl)-1,4,5,6,7,8-hexahydrocyclohepta[b]pyrrol-3-yl)propanoic acid]: the figures for the inhibition at 0.5 µM in test [1] and in test [2] were 0.2% and 17.3%, respectively. The inhibition at 0.1 µM in test [3] is 43.8%. In addition, the inhibition at 1 µM in test [4] was found to be 61.3%.

(Values after patent US7897602B2, “Indolinone compounds as kinase inhibitors” (Development Center for Biotechnology, priority 2009, dated 2011).)
